Source: US11596622B2, “Mazindol treatment for heroin dependence and substance use disorder” (NLS Pharmaceutics AG, priority 2017, dated 2023)

Legend:
5-HT transporter(h) = target: T1, 5-HT transporter(h) (Homo sapiens, UniProt P31645); test: Radioligand binding, 5-HT transporter (Eurofins CEREP); conditions: 1.0 × 10^−05 M; antagonist radioligand
T1 construct: Eurofins CEREP
Excerpt: (§1) Table A discloses mazindol and Met tested at […] and the compound binding calculated as a percent inhibition of the binding of a radioactively labeled ligand specific for each target (Eurofins CEREP, France).
(§2) An inhibition or stimulation of more than 50% is considered a significant effect of the test compounds. Fifty percent is a common cut-off for further investigation (i.e. determination of IC50 or EC50 values from concentration-response curves).
(§3) The results are expressed as a percent of control specific binding obtained in the presence of the test compounds:
(§4) [formula] and as a percent inhibition of control specific binding obtained in the presence of the test compounds: […]

5-HT1A(h) = target: T2, 5-HT1A(h) (Homo sapiens, UniProt P08908); test: Radioligand binding, 5-HT1A (Eurofins CEREP); conditions: 1.0 × 10^−05 M; agonist radioligand
T2 construct: Eurofins CEREP
T2 sequence (P08908 1-422): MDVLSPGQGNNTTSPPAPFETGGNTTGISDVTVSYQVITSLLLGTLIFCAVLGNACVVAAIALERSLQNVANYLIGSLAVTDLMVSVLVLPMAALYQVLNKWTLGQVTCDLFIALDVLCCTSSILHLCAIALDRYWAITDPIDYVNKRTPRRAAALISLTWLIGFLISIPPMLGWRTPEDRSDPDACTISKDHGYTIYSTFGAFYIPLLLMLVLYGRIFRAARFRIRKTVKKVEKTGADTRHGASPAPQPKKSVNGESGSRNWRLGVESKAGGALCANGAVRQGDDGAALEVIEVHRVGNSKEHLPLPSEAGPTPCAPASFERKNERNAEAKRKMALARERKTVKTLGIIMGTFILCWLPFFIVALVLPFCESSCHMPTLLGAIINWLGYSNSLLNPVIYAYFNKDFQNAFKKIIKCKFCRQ
Excerpt: as §1, §2, §3, §4

Dopamine transporter(h) = target: T3, Dopamine transporter(h) (Homo sapiens, UniProt Q01959); test: Radioligand binding, dopamine transporter (Eurofins CEREP); conditions: 1.0 × 10^−05 M; antagonist radioligand
T3 construct: Eurofins CEREP
Excerpt: as §1, §2, §3, §4

H1(h) = target: T4, H1(h) (Homo sapiens, UniProt P35367); test: Radioligand binding, H1 (Eurofins CEREP); conditions: 1.0 × 10^−05 M; antagonist radioligand
T4 construct: Eurofins CEREP
Excerpt: as §1
as §2, with “curves). Tables B and C display the binding profiles for Mazindol and Met.” for “curves).”
as §3, §4

M1(h) = target: T5, M1(h) (Homo sapiens, UniProt P11229); test: Radioligand binding, M1 (Eurofins CEREP); conditions: 1.0 × 10^−05 M; antagonist radioligand
T5 construct: Eurofins CEREP
T5 sequence (P11229 1-460): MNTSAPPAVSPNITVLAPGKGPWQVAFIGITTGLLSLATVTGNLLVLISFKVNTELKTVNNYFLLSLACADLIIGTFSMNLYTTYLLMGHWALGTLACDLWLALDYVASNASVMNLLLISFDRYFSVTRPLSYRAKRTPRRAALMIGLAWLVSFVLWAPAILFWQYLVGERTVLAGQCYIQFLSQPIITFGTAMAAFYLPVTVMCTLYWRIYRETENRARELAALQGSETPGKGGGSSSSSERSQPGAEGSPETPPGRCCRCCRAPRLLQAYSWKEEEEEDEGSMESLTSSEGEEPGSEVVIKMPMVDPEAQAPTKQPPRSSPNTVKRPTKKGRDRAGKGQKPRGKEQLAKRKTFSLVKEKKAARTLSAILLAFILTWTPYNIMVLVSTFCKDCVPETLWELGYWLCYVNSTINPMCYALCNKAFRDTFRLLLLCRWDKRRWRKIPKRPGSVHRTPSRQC
Excerpt: as §1
as §2, with “curves). Tables B and C display the binding profiles for Mazindol and Met.” for “curves).”
as §3, §4

μ (MOP) (h) = target: T6, μ (MOP) (h) (Homo sapiens, UniProt P35372); test: Radioligand binding, μ opioid receptor (Eurofins CEREP)
T6 construct: Eurofins CEREP
Excerpt: as §1
as §2, with “curves). Tables B and C display the binding profiles for Mazindol and Met.” for “curves).”
as §3, §4

[1] = target: T7, Norepinephrine transporter (h) (Homo sapiens, UniProt P23975); test: Radioligand binding, norepinephrine transporter (Eurofins CEREP); conditions: 1.0 × 10^−05 M; antagonist radioligand
T7 construct: Eurofins CEREP
Excerpt: as §1
as §2, with “curves). Tables B and C display the binding profiles for Mazindol and Met.” for “curves).”
as §3, §4

k (KOP) = target: T8, k (KOP) (Rattus norvegicus, UniProt P34975); test: Radioligand binding, κ opioid receptor (Eurofins CEREP)
T8 construct: Eurofins CEREP
Excerpt: as §1
as §2, with “curves). Tables B and C display the binding profiles for Mazindol and Met.” for “curves).”
as §3, §4

[2] = 1.0 × 10^−05 M, agonist radioligand

T6 sequence (P35372 whole entry): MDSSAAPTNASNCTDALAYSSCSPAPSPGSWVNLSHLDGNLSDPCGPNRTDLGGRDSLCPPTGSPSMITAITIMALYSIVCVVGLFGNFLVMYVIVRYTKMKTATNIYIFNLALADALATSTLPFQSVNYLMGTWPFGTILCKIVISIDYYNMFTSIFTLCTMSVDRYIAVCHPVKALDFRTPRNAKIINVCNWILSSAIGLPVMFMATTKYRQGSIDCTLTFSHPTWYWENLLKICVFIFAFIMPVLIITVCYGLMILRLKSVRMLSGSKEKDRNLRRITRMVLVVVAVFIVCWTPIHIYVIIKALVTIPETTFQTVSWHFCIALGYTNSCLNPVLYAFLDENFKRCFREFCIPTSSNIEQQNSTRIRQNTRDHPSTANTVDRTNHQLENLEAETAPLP
T8 sequence (P34975 whole entry): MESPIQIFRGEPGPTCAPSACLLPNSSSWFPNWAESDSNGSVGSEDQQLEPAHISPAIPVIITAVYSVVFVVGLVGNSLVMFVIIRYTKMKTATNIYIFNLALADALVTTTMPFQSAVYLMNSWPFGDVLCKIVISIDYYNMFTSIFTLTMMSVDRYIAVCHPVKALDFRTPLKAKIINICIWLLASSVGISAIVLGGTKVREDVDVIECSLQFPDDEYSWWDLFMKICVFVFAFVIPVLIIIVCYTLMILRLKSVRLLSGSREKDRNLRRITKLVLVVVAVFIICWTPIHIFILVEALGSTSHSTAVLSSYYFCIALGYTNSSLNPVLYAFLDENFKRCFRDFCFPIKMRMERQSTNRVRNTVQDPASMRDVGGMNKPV
T1 sequence (P31645 whole entry): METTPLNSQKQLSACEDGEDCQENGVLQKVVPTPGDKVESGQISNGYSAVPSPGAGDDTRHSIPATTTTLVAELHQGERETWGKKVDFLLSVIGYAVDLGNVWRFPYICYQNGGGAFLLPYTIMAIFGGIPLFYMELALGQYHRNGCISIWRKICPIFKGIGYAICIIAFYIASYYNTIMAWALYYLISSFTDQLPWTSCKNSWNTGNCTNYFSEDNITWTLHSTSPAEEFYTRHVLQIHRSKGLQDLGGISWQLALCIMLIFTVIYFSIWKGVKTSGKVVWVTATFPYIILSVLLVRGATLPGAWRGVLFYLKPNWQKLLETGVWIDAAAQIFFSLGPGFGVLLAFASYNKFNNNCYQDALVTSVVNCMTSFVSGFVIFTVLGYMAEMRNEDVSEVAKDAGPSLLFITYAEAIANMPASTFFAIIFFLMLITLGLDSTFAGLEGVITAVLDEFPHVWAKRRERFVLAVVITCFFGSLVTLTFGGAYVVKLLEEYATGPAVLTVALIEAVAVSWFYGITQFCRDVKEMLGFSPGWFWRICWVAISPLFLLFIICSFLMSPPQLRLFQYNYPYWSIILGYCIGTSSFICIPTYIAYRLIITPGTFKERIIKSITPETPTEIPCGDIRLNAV
T4 sequence (P35367 whole entry): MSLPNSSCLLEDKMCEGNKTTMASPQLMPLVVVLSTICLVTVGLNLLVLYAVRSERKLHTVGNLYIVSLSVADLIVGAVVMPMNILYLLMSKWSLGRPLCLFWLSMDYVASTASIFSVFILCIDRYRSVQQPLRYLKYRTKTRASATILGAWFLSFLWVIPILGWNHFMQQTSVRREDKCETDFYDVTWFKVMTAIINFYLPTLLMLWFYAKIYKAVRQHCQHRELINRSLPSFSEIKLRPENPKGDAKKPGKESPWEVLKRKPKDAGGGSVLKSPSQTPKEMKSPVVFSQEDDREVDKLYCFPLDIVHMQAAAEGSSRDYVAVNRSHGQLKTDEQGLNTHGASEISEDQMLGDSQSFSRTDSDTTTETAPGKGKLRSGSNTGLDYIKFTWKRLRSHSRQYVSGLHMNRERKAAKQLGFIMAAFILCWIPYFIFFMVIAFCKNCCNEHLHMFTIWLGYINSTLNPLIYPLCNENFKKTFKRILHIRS
T7 sequence (P23975 whole entry): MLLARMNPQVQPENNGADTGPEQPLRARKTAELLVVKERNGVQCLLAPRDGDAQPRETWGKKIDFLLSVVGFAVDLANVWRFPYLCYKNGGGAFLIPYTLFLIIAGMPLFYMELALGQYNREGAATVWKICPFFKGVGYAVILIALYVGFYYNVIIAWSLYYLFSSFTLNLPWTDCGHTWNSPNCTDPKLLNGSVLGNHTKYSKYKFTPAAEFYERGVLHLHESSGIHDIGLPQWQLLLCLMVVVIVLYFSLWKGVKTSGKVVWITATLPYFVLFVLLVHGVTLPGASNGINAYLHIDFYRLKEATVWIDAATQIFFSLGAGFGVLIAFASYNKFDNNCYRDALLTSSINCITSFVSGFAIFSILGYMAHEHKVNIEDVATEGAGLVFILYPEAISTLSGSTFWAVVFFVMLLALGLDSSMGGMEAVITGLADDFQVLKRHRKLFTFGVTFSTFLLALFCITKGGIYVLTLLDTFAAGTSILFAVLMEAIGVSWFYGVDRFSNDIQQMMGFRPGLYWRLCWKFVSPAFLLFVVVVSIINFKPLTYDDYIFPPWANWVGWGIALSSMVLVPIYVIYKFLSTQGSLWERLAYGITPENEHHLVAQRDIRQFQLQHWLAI
T3 sequence (Q01959 whole entry): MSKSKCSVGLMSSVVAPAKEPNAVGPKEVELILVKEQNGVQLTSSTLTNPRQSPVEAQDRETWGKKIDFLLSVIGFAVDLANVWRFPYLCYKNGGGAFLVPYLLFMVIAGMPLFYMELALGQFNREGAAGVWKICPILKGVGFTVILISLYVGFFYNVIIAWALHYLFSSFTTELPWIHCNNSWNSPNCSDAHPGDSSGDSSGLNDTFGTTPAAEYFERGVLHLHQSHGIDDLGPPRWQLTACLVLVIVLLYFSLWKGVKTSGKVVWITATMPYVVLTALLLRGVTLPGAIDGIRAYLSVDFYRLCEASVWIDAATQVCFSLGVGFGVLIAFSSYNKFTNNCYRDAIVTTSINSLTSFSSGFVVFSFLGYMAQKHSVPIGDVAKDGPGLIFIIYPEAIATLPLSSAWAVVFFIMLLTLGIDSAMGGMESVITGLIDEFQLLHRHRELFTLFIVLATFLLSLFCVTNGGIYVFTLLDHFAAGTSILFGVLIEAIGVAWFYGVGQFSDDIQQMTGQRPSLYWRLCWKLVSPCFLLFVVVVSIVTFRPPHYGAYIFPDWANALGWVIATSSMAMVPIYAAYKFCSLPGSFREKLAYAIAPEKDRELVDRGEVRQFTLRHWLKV

NCCN1C(=O)c2ccccc2C1(O)c1ccc(Cl)cc1 (stereo not shown) [Mazindol Metabolite, 2-(2-Aminoethyl)-3-(p-chlorophenyl)-3-hydroxyphthalimidine]
percent inhibition of the binding of a radioactively labeled ligand (5-HT transporter(h)): 98.5% | percent inhibition of the binding of a radioactively labeled ligand (5-HT1A(h)): 86.3% | percent inhibition of the binding of a radioactively labeled ligand (Dopamine transporter(h)): 101% | percent inhibition of the binding of a radioactively labeled ligand (H1(h)): 75.5% | percent inhibition of the binding of a radioactively labeled ligand (M1(h)): 50.4% | percent inhibition of the binding of a radioactively labeled ligand (μ (MOP) (h); [2]): 87.9% | affinity for μ-opioid receptors (μ (MOP) (h); compared with amphetamines): higher affinity | percent inhibition of the binding of a radioactively labeled ligand [1]: 100.2% | affinity for κ-opioid receptors (k (KOP)): modest affinity | percent inhibition of the binding of a radioactively labeled ligand (k (KOP); [2]): 53.3%
